Measured values as given in PubChem BioAssay (NCI).
Values joined by “and” are separate entries in the source; they are usually repeats but may differ in a detail not shown here. Equal entries are not always repeated.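 Compound exposure: 48 hours, 5 concentrations, 96-well plates. TGI: concentration producing complete growth inhibition.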

How the values were obtained:
Assay in all cases: growth of human tumour cells (NCI), 48 h
786-0 renal = system: 786-0 renal
MALME-3M melanoma = system: MALME-3M melanoma
SK-MEL-5 melanoma = system: SK-MEL-5 melanoma
HT29 colon = system: HT29 colon
SN12C renal = system: SN12C renal
MDA-N = system: MDA-N
UO-31 renal = system: UO-31 renal
HCC-2998 colon = system: HCC-2998 colon
SF-295 CNS = system: SF-295 CNS
UACC-257 melanoma = system: UACC-257 melanoma

CC1=C2CC(C)(C)CC(=O)C2(C)CCC1=O (stereo unspecified)
TGI (786-0 renal): > 100 µM | TGI (MALME-3M melanoma): > 100 µM | TGI (SK-MEL-5 melanoma): > 100 µM | TGI (HT29 colon): > 100 µM | TGI (SN12C renal): > 100 µM | TGI (MDA-N): > 100 µM | TGI (UO-31 renal): > 100 µM | TGI (HCC-2998 colon): > 100 µM | TGI (SF-295 CNS): > 100 µM | TGI (UACC-257 melanoma): > 100 µM

C=C(Cl)C(Cl)(CBr)CCC(Br)C(C)(C)Cl (stereo unspecified)
TGI (786-0 renal): 0.9 µM and 1.03 µM and 3.78 µM | TGI (MALME-3M melanoma): 31.9 µM and 21 µM and 30.8 µM | TGI (SK-MEL-5 melanoma): 25.4 µM and 25.2 µM and 28.3 µM | TGI (HT29 colon): 2.19 µM and 1.94 µM and 2.1 µM | TGI (SN12C renal): 21.9 µM and 19.3 µM and 28.1 µM | TGI (MDA-N): 8.91 µM and 3.02 µM and 21.6 µM | TGI (UO-31 renal): 3.71 µM and 3.73 µM and 11.3 µM | TGI (HCC-2998 colon): 6.35 µM and 2.97 µM and 8.14 µM | TGI (SF-295 CNS): 3.53 µM and 3.04 µM and 3.7 µM | TGI (UACC-257 melanoma): 6.07 µM and 3.81 µM and 14.1 µM

CCN(CCCl)c1cc(CN(C)C)cc(NC(=O)c2cc(C(=O)Nc3cc(CN(C)C)cc(N(CC)CCCl)c3)n(C)n2)c1
TGI (786-0 renal): 0.261 µM | TGI (MALME-3M melanoma): 2.86 µM | TGI (SK-MEL-5 melanoma): 2.28 µM | TGI (HT29 colon): 1.02 µM | TGI (SN12C renal): 2.01 µM | TGI (MDA-N): 2.55 µM | TGI (UO-31 renal): 7.42 µM | TGI (HCC-2998 colon): 2.11 µM | TGI (SF-295 CNS): 2.24 µM | TGI (UACC-257 melanoma): 2.89 µM

O=C([O-])C1([n+]2c(-c3ccccc3)cc(-c3ccccc3)cc2-c2ccccc2)CC1
TGI (786-0 renal): > 100 µM | TGI (MALME-3M melanoma): > 100 µM | TGI (SK-MEL-5 melanoma): > 100 µM | TGI (HT29 colon): > 100 µM | TGI (SN12C renal): > 100 µM | TGI (MDA-N): > 100 µM | TGI (HCC-2998 colon): > 100 µM | TGI (SF-295 CNS): > 100 µM | TGI (UACC-257 melanoma): > 100 µM

CC(=O)O[C@H]1C[C@@H](OC(C)=O)[C@@](C)(O)[C@@H]2[C@@H](OC(C)=O)[C@@]3(O)[C@H](/C=C(/CCl)[C@H]4O[C@H]4[C@@H](OC(C)=O)[C@@]12C)OC(=O)[C@@H]3C
TGI (786-0 renal): > 25 µM | TGI (MALME-3M melanoma): > 25 µM | TGI (SK-MEL-5 melanoma): > 25 µM | TGI (HT29 colon): > 25 µM | TGI (SN12C renal): > 25 µM | TGI (MDA-N): > 25 µM | TGI (UO-31 renal): > 25 µM | TGI (HCC-2998 colon): > 25 µM | TGI (SF-295 CNS): > 25 µM | TGI (UACC-257 melanoma): > 25 µM

CCCCC1Cc2cc(OC)ccc2-c2n1c1cc(OC)ccc1[n+]2C (stereo unspecified) (tested in a mixture with another compound)
TGI (786-0 renal): > 100 µM | TGI (MALME-3M melanoma): 9.71 µM | TGI (SK-MEL-5 melanoma): 3.76 µM | TGI (HT29 colon): > 29.2 µM | TGI (SN12C renal): 7.97 µM | TGI (MDA-N): 11.1 µM | TGI (UO-31 renal): 30.9 µM | TGI (HCC-2998 colon): 8.51 µM | TGI (SF-295 CNS): > 37.3 µM | TGI (UACC-257 melanoma): > 34.3 µM

COC(=O)c1ccccc1/C=C1\Cc2ccc3ccccc3c2C1C (stereo unspecified)
TGI (786-0 renal): > 100 µM | TGI (MALME-3M melanoma): > 100 µM | TGI (SK-MEL-5 melanoma): 64.5 µM | TGI (SN12C renal): > 100 µM | TGI (MDA-N): > 100 µM | TGI (UO-31 renal): > 100 µM | TGI (HCC-2998 colon): > 100 µM | TGI (SF-295 CNS): > 100 µM | TGI (UACC-257 melanoma): > 100 µM

CC(=O)Oc1ccc2cc(Oc3ccccc3)c(=O)oc2c1
TGI (786-0 renal): > 100 µM | TGI (MALME-3M melanoma): > 100 µM | TGI (SK-MEL-5 melanoma): > 100 µM | TGI (HT29 colon): > 100 µM | TGI (SN12C renal): > 100 µM | TGI (MDA-N): > 100 µM | TGI (UO-31 renal): > 100 µM | TGI (HCC-2998 colon): > 100 µM | TGI (SF-295 CNS): > 100 µM | TGI (UACC-257 melanoma): > 100 µM

O=C1NC2=NN=C(c3ccc(Br)cc3)CN2NC12c1ccccc1-c1ccccc12
TGI (786-0 renal): > 100 µM | TGI (MALME-3M melanoma): > 100 µM | TGI (SK-MEL-5 melanoma): > 100 µM | TGI (HT29 colon): > 100 µM | TGI (SN12C renal): > 100 µM | TGI (MDA-N): > 100 µM | TGI (UO-31 renal): > 100 µM | TGI (HCC-2998 colon): > 100 µM | TGI (SF-295 CNS): > 100 µM | TGI (UACC-257 melanoma): > 100 µM

CCCCCC(/C=C/[C@@H]1[C@@H](C(O)CCCCCC(=O)OC)C(=O)C[C@H]1O[Si](C)(C)C(C)(C)C)OCOCCOC (stereo partly specified)
TGI (786-0 renal): 31.6 µM | TGI (MALME-3M melanoma): 30.6 µM | TGI (SK-MEL-5 melanoma): 30.5 µM | TGI (HT29 colon): 18.8 µM | TGI (SN12C renal): 45.7 µM | TGI (MDA-N): 24.4 µM | TGI (UO-31 renal): 28.9 µM | TGI (HCC-2998 colon): > 57 µM | TGI (SF-295 CNS): 32.6 µM | TGI (UACC-257 melanoma): 21.9 µM

CC(=O)O[C@H]1C[C@H]2[C@@H]([C@H](OC(C)=O)C[C@@H]3CC4(CC[C@@]32C)OOC2(CCCCC2)OO4)[C@@H]2CC[C@H]([C@H](C)CCC(=O)O)[C@@]12C
TGI (786-0 renal): 24 µM | TGI (MALME-3M melanoma): 34.3 µM | TGI (SK-MEL-5 melanoma): 22.6 µM | TGI (HT29 colon): 25.3 µM | TGI (SN12C renal): 20.7 µM | TGI (MDA-N): 26.9 µM | TGI (UO-31 renal): 11 µM | TGI (HCC-2998 colon): 25 µM | TGI (SF-295 CNS): 19.1 µM | TGI (UACC-257 melanoma): 25 µM

CN(CCCNC(=O)c1c2ccc3ccccc3c2nn1C)CCCNC(=O)c1c2ccc3ccccc3c2nn1C
TGI (786-0 renal): 25.7 µM | TGI (MALME-3M melanoma): 8.71 µM | TGI (SK-MEL-5 melanoma): 5.92 µM | TGI (HT29 colon): 6.93 µM | TGI (SN12C renal): 25.6 µM | TGI (MDA-N): 8.91 µM | TGI (UO-31 renal): 19.9 µM | TGI (HCC-2998 colon): 3.44 µM | TGI (SF-295 CNS): 9.77 µM | TGI (UACC-257 melanoma): 3.57 µM

O=C1Nc2ccccc2C1S(=O)(=O)c1ccccc1 (stereo unspecified)
TGI (786-0 renal): > 100 µM | TGI (MALME-3M melanoma): > 100 µM | TGI (SK-MEL-5 melanoma): > 100 µM | TGI (HT29 colon): > 100 µM | TGI (SN12C renal): > 100 µM | TGI (MDA-N): > 100 µM | TGI (UO-31 renal): > 100 µM | TGI (HCC-2998 colon): > 100 µM | TGI (SF-295 CNS): > 100 µM | TGI (UACC-257 melanoma): > 100 µM

COc1cccc(Nc2nc(NS(=O)(=O)c3cc(C)c(Cl)cc3S)n[nH]2)c1
TGI (786-0 renal): > 100 µM | TGI (MALME-3M melanoma): > 100 µM | TGI (SK-MEL-5 melanoma): > 100 µM | TGI (HT29 colon): > 100 µM | TGI (SN12C renal): > 100 µM | TGI (MDA-N): > 100 µM | TGI (UO-31 renal): > 100 µM | TGI (HCC-2998 colon): > 100 µM | TGI (SF-295 CNS): > 100 µM | TGI (UACC-257 melanoma): > 100 µM

CCOc1cc2c(cc1O)CC[C@@H]1[C@@H]2CC[C@]2(C)[C@@H](O)CC[C@@H]12
TGI (786-0 renal): 47.1 µM | TGI (MALME-3M melanoma): 50 µM | TGI (SK-MEL-5 melanoma): 2.48 µM | TGI (HT29 colon): 17.4 µM | TGI (SN12C renal): 46.3 µM | TGI (MDA-N): < 0.0198 µM | TGI (UO-31 renal): 63.1 µM | TGI (HCC-2998 colon): 5.51 µM | TGI (SF-295 CNS): 5.87 µM

COCCOCCOCCC(=O)NC1CC2CCC1(C)C2(C)C (stereo unspecified)
TGI (786-0 renal): > 100 µM | TGI (MALME-3M melanoma): > 100 µM | TGI (SK-MEL-5 melanoma): > 100 µM | TGI (HT29 colon): > 100 µM | TGI (SN12C renal): > 100 µM | TGI (MDA-N): > 100 µM | TGI (UO-31 renal): > 100 µM | TGI (HCC-2998 colon): > 100 µM | TGI (SF-295 CNS): > 100 µM | TGI (UACC-257 melanoma): > 100 µM

COC(=O)[C@]1(C)[C@H]2C[C@H]3O[C@H]4[C@H](O)[C@@H](O)OC(CC(O)C(C5=CC(=O)OC5)C(C5=CC(=O)OC5)C(O)CC56CCCCC7[C@@H](C)[C@H](C[C@H]8[C@](C)(C(=O)OC)[C@H](O)CC[C@]78C)O[C@H]([C@@H](O)[C@H](O)O5)[C@H]6O)(CCCCC([C@@H]3C)[C@]2(C)CC[C@@H]1O)[C@H]4O (stereo partly specified)
TGI (786-0 renal): 0.225 µM | TGI (MALME-3M melanoma): 0.407 µM | TGI (SK-MEL-5 melanoma): 0.129 µM | TGI (HT29 colon): 0.825 µM | TGI (SN12C renal): 0.159 µM | TGI (MDA-N): 0.786 µM | TGI (UO-31 renal): 0.442 µM | TGI (HCC-2998 colon): 2.94 µM | TGI (UACC-257 melanoma): 1.01 µM

Cc1cc(OC(=O)Nc2ccc(Cl)cc2)ccc1C(=S)Nc1ccccc1
TGI (786-0 renal): > 100 µM | TGI (MALME-3M melanoma): > 100 µM | TGI (SK-MEL-5 melanoma): > 100 µM | TGI (HT29 colon): > 100 µM | TGI (SN12C renal): > 100 µM | TGI (MDA-N): > 100 µM | TGI (UO-31 renal): > 100 µM | TGI (HCC-2998 colon): > 100 µM | TGI (SF-295 CNS): > 100 µM | TGI (UACC-257 melanoma): > 100 µM

C/C(=N\Nc1nc2ccccc2n1C)c1ccc2ccccc2n1
TGI (786-0 renal): 11.5 µM | TGI (MALME-3M melanoma): 16.3 µM | TGI (SK-MEL-5 melanoma): 5.43 µM | TGI (HT29 colon): 18.3 µM | TGI (SN12C renal): 16.2 µM | TGI (MDA-N): 37.7 µM | TGI (UO-31 renal): 11.8 µM | TGI (HCC-2998 colon): 0.9 µM | TGI (SF-295 CNS): 10.5 µM | TGI (UACC-257 melanoma): > 47 µM
